One data set concerns Sin3B expression. Particulars: van Oevelen, et al. (2008) Mol. Cell. 32:359-370; cited from earlier work.
Data set [1] relates to IL-6 expression in BxPc3 human PDAC cells. In words: Quantitative RT-PCR for IL-6 mRNA expression in BxPc3 pancreatic cancer cells. Format: cell-based. To be noted: BxPc3 cells treated 48 hours with 0.2 μM or 1 μM, relative to DMSO; FIG. 5. Here is the method: (§1) Quantitative PCR for IL-1α and IL-6 mRNA expression in BxPc3 pancreatic cancer cell lines. BxPc3 has been treated 48 hours with vehicle DMSO, 0.2 μM (TSA 0.2) or 1 μM (TSA 1) of Trichostatin A. Sin3B and IL-1α mRNA expressions are relative to the expressions in DMSO (*p<0.05).
(§2) BxPc3 human pancreatic cancer cell lines are known in the art and available from American Type Culture Collection (ATCC, Manassas, Va.). Cells were cultured in RPMI, 10% FBS, Sodium Pyruvate, HEPES and Penicillin/[…]. The cultures were maintained in 5% CO2 at 37° C.
Extraction of total RNA from Pancreas and PDECs was performed using RNEASY mini kit (QIAGEN). For the pancreas, a piece was snap-frozen, ground, and the frozen powder was added to the RNEASY lysis buffer. Reverse transcription was done using Moloney murine leukemia virus polymerase and oligo(dT) primers. RT-PCR analyses were done using Tag DNA polymerase (5 Prime) and dNTP (Promega). Quantitative RT-PCR analyses were done using the SYBR Green method and the samples were run on the BIO-RAD I cycler MYIQ. Expression levels were normalized to GAPDH. Results were reported as relative to the abundance of mSin3B^+/− or mSin3^B+/− KRas^G12D transcripts. […]

For data set [2], the system named is IL-1α expression in BxPc3 human PDAC cells. In words: Quantitative RT-PCR for IL-1α mRNA expression in BxPc3 pancreatic cancer cells. Format: cell-based. Particulars: BxPc3 cells treated 48 hours with 0.2 μM or 1 μM, relative to DMSO; FIG. 5, p<0.05. Here is the method: Quantitative PCR for Sin3B (*p<0.005) and IL-1α (*p<0.05) mRNA expression in BxPc3 pancreatic cancer cell lines. BxPc3 were infected with an empty vector or a shRNA against Sin3B (shSin3B). ShSin3B mRNA expressions are relative to the empty vector expression.
as §1, §2
DNA sequences encoding shRNAs for Sin3B (shSin3B) were selected and cloned into the PLKO retroviral vector (Open Biosystem). BxPc3 cells were infected with shSin3B or PLKO for 3 days and selected in puromycin for 5 days. The level of Sin3B knockdown by shSin3B was determined by quantitative RT-PCR.
Extraction of total RNA from Pancreas and PDECs was performed using RNEASY mini kit (QIAGEN). […] Quantitative RT-PCR analyses were done using the SYBR Green method and the samples were run on the BIO-RAD I cycler MYIQ. […]

Take “GCAAAGCGGUCCCUGUUUAUU (listed as RNA, chemistry not given here) [SEQ ID NO:6]”: in the data set on Sin3B expression, the Sin3B expression entry is recorded as “inhibit Sin3B expression”.
With `CC(/C=C/C(=O)NO)=C\[C@@H](C)C(=O)c1ccc(N(C)C)cc1` [trichostatin A], the “IL-6 expression after TSA treatment” value in data set [1] is “not significantly affected”. Further, the “IL-1α expression after TSA treatment” value in data set [2] is “specific and dose-dependent down-regulation”.
With “GGCAAUGGGUCGUGCGAGAUU (chemistry not given here) [SEQ ID NO:7]”, the Sin3B expression entry in the data set on Sin3B expression is “inhibit Sin3B expression”.
